The nature of data set [1]: Selectivity index, ratio of IC50 for hTERT-RPE1 cells to IC50 for human PANC1 cells. The settings on record: hTERT-RPE1 cells versus PANC1 cells, read-out: Ratio IC50. It is filed as toxicity.
The subject of data set [2] is HepG2. As to the kind of experiment: Induction of apoptosis in human HepG2 cells assessed as increase in caspase-3/7 activity after 24 hrs by Caspase-Glo 3/7 luminescence assay. It is filed as functional, cell-based.
Data set [3] deals with TERT-RPE1. In words: Cytotoxicity against hTERT-RPE1 cells at 50 uM after 48 hrs by resazurin dye-based fluorescence assay relative to control. The settings on record: human, tert-rpe1, 48 h. Type of data set: cell-based.
Data set [4] is described as follows: Selectivity index, ratio of IC50 for hTERT-RPE1 cells to IC50 for human HepG2 cells. It is filed as toxicity. The settings on record: hTERT-RPE1 cells versus HepG2 cells, read-out: Ratio IC50.
For data set [5], the system named is TERT-RPE1. As to the kind of experiment: Cytotoxicity against hTERT-RPE1 cells at 12.50 uM after 48 hrs by resazurin dye-based fluorescence assay relative to control. It is filed as cell-based. The settings on record: human, tert-rpe1, 48 h, 12.5 µM.
The nature of data set [6]: Selectivity index, ratio of IC50 for hTERT-BJ cells to IC50 for human PANC1 cells. The settings on record: hTERT-BJ cells versus PANC1 cells, read-out: Ratio IC50. It is filed as toxicity.
The test system of data set [7] is PANC-1. In words: Antiproliferative activity against human PANC1 cells after 48 hrs by resazurin dye-based fluorescence assay. Type of data set: functional, cell-based. The conditions noted are these: PANC-1, 48 h.
A short description of data set [8]: Selectivity index, ratio of IC50 for hTERT-BJ cells to IC50 for human CCRF-CEM cells. Type of data set: toxicity. The conditions noted are these: hTERT-BJ cells versus CCRF-CEM cells, read-out: Ratio IC50.
Data set [9] can be described thus: Selectivity index, ratio of IC50 for hTERT-RPE1 cells to IC50 for human CCRF-CEM cells. It is filed as toxicity. The settings on record: hTERT-RPE1 cells versus CCRF-CEM cells, read-out: Ratio IC50.
Data set [10] concerns TERT-RPE1. As to the kind of experiment: Cytotoxicity against hTERT-RPE1 cells at 6.25 uM after 48 hrs by resazurin dye-based fluorescence assay relative to control. It is filed as cell-based. The settings on record: human, tert-rpe1, 48 h.
In data set [11] the test system is HepG2. As to the kind of experiment: Antiproliferative activity against human HepG2 cells after 48 hrs by resazurin dye-based fluorescence assay. Type of data set: functional, cell-based. The settings on record: HepG2, 48 h.
The test system of data set [12] is hTERT-BJ. In words: Cytotoxicity against hTERT-BJ cells at 25 uM after 48 hrs by resazurin dye-based fluorescence assay relative to control. Type of data set: cell-based. The conditions noted are these: human.
Data set [13] relates to TERT-RPE1. As to the kind of experiment: Cytotoxicity against hTERT-RPE1 cells after 48 hrs by resazurin dye-based fluorescence assay. The conditions noted are these: Homo sapiens, RPE-1, 48 h. It is filed as cell-based.
The subject of data set [14] is hTERT-BJ. In words: Cytotoxicity against hTERT-BJ cells at 12.50 uM after 48 hrs by resazurin dye-based fluorescence assay relative to control. Type of data set: cell-based. The settings on record: human, 12.5 µM.
Data set [15] has as its system hTERT-BJ. As to the kind of experiment: Cytotoxicity against hTERT-BJ cells at 6.25 uM after 48 hrs by resazurin dye-based fluorescence assay relative to control. The conditions noted are these: human. Type of data set: cell-based.
In data set [16] the test system is TERT-RPE1. As to the kind of experiment: Cytotoxicity against hTERT-RPE1 cells at 25 uM after 48 hrs by resazurin dye-based fluorescence assay relative to control. The settings on record: human, tert-rpe1, 48 h. It is filed as cell-based.
Data set [17] has as its system hTERT-BJ. As to the kind of experiment: Cytotoxicity against hTERT-BJ cells at 50 uM after 48 hrs by resazurin dye-based fluorescence assay relative to control. The settings on record: human. It is filed as cell-based.
Data set [18] relates to CCRF-CEM. As to the kind of experiment: Antiproliferative activity against human CCRF-CEM cells after 48 hrs by resazurin dye-based fluorescence assay. Type of data set: functional, cell-based.
In data set [19] the test system is hTERT-BJ. In words: Cytotoxicity against hTERT-BJ cells after 48 hrs by resazurin dye-based fluorescence assay. It is filed as cell-based. The settings on record: Homo sapiens.
In data set [20] the test system is PANC-1. In words: Induction of apoptosis in human PANC1 cells assessed as increase in caspase-3/7 activity after 24 hrs by Caspase-Glo 3/7 luminescence assay. It is filed as functional, cell-based.
The nature of data set [21]: Selectivity index, ratio of IC50 for hTERT-BJ cells to IC50 for human HepG2 cells. Type of data set: toxicity. The settings on record: hTERT-BJ cells versus HepG2 cells, read-out: Ratio IC50.

Turning to `O=C(N/N=C/c1cccnc1)c1cc2ccccc2oc1=O`, the selectivity ratio was over 3.27 in data set [1]; over 3.14 in [4]; over 3.27 in [6]; over 5.05 in data set [8]; over 5.05 in data set [9]; over 3.14 in [21]. Besides, the Activity result in [2] is “Dose-dependent effect”; in data set [3], 14.75%; in data set [5] it was 8.28%; in data set [10], 7.46%; in [12] it was 5.22%; in data set [14], 0.97%. Also, the Activity is 0.21% in data set [15], 9.89% in [16], 2.6% in data set [17] and “Dose-dependent effect” in [20]. Further, the IC50 was 15.3 µM in data set [7]; 15.9 µM in [11]; over 50 µM in data set [13]; 9.9 µM in [18]; over 50 µM in [19].

For the molecule `O=C(N/N=C/c1ccncc1)c1cc2cc(Br)ccc2oc1=O`, the selectivity ratio is over 1.94 in data set [1]; over 10.2 in [4]; over 1.94 in [6]; over 7.88 in data set [8]; over 7.88 in data set [9]; over 10.2 in data set [21]. The Activity entry in data set [2] was “Dose-dependent effect”; in data set [3], 39.96%; in data set [5] it was 17.16%; in data set [10], 9.63%; in data set [12], 1.37%; in data set [14], 0.2%. The Activity was 0.6% in data set [15], 34.5% in data set [16], 2.52% in data set [17] and “Dose-dependent effect” in data set [20]. The IC50 is 25.7 µM in data set [7]; 4.89 µM in data set [11]; over 50 µM in [13]; 6.34 µM in data set [18]; over 50 µM in [19].

In the case of `CCOc1ccc2nc(Cl)c(/C=N/NC(=O)c3cc4cc(Br)ccc4oc3=O)cc2c1`, the selectivity ratio is over 2.94 in data set [1]; over 1.72 in data set [4]; over 2.94 in [6]; over 3.87 in data set [8]; over 3.87 in [9]; over 1.72 in data set [21]. The Activity in data set [3] amounted to 20.15%; in [5], 12.4%; in data set [10] it was 5.41%; in data set [12], 2.63%; in data set [14] it was 1.77%; in data set [15] it was 0.53%. Moreover, the values for the Activity in data set [16] and in [17] were 13.67% and 2.67%, respectively. The IC50 is 17 µM in data set [7]; 29 µM in data set [11]; over 50 µM in data set [13]; 12.9 µM in data set [18]; over 50 µM in [19].

Regarding `Cc1noc(NS(=O)(=O)c2ccc(NC(=O)c3cc4cc(Br)ccc4oc3=O)cc2)c1C`, the selectivity ratio in data set [1] is over 1.74; in [4], over 5.68; in [6], over 1.74; in [8], over 3.43; in [9] it was over 3.43; in data set [21] it was over 5.68. The Activity in data set [3] is given as 26.26%; in data set [5] it was 10.36%; in data set [10], 1.84%; in [12], 3.04%; in data set [14], 1.2%; in data set [15] it was 0.95%. For the same molecule, the Activity is on record as 12.79% in data set [16] and 13.26% in data set [17]. In addition, the IC50 in data set [7] was 28.7 µM; in data set [11] it was 8.8 µM; in [13] it was over 50 µM; in data set [18] it was 14.6 µM; in [19] it was over 50 µM.

As to `CCOc1ccc(NC(=O)c2cc3cc([N+](=O)[O-])ccc3oc2=O)cc1`, the selectivity ratio is over 4.13 in data set [1]; over 1.77 in data set [4]; over 4.13 in data set [6]; over 3.78 in [8]; over 3.78 in data set [9]; over 1.77 in data set [21]. In addition, the Activity is 9.35% in data set [3]; 6.01% in data set [5]; 5.12% in data set [10]; 5.22% in [12]; 1.66% in data set [14]; 3.1% in [15]. The figures for the Activity in data set [16] and in data set [17] were 8.22% and 6.11%, respectively. In addition, the IC50 is 12.1 µM in data set [7]; 28.3 µM in data set [11]; over 50 µM in [13]; 13.2 µM in data set [18]; over 50 µM in data set [19].

On to `CCOc1ccc(NC(=O)c2cc3cc(Br)ccc3oc2=O)cc1`, for which the selectivity ratio is over 2.97 in data set [1]; over 1.35 in data set [4]; over 2.97 in data set [6]; over 2.3 in data set [8]; over 2.3 in data set [9]; over 1.35 in data set [21]. The Activity in data set [3] came to 16.45%; in data set [5], 9.63%; in data set [10], 3.04%; in data set [12], 1.86%; in data set [14] it was 1.19%; in data set [15], 2.3%. Also, the values for the Activity in data set [16] and in data set [17] were 13.28% and 3.3%, respectively. Also, the IC50 in data set [7] was 16.8 µM; in data set [11], 37 µM; in data set [13], over 50 µM; in data set [18], 21.8 µM; in data set [19], over 50 µM.

Turning to `O=C(N/N=C/c1cccnc1)c1cc2ccc(O)cc2oc1=O`, the selectivity ratio was over 19.8 in [1]; over 2.72 in data set [4]; over 19.8 in data set [6]; over 3.55 in data set [8]; over 3.55 in data set [9]; over 2.72 in data set [21]. Moreover, the Activity in data set [3] was 20.79%; in [5] it was 12.79%; in data set [10] it was 8.83%; in data set [12], 1.99%; in data set [14], 1.26%; in data set [15], 0.5%. Moreover, the Activity in data set [16] worked out at 14.34%; in data set [17] it was 2.27%. Besides, the IC50 was 2.52 µM in data set [7]; 18.4 µM in [11]; over 50 µM in [13]; 14.1 µM in [18]; over 50 µM in [19].

Take `Cc1noc(NS(=O)(=O)c2ccc(NC(=O)c3cc4ccc(O)cc4oc3=O)cc2)c1C`: the selectivity ratio in data set [1] is over 3.09; in [4], over 1.29; in [6], over 3.09; in data set [8] it was over 2.33; in [9] it was over 2.33; in [21] it was over 1.29. The Activity in [3] came to 5.78%; in [5], 5.89%; in [10], 0.99%; in [12] it was 3.63%; in data set [14], 3.52%; in [15], 1.17%. The Activity was determined as 5.92% in [16] and 5% in data set [17]. Moreover, the IC50 in [7] was 16.2 µM; in [11], 38.8 µM; in [13] it was over 50 µM; in [18] it was 21.5 µM; in data set [19] it was over 50 µM.

The values above are taken from ChEMBL document CHEMBL4152218, “Novel hydrazide-hydrazone and amide substituted coumarin derivatives: Synthesis, cytotoxicity screening, microarray, radiolabeling and in vivo pharmacokinetic studies” (Eur J Med Chem, 2018).
